The values that follow are results of earlier work, collected in patent US12589118B2, “Method of prolonging the lifespan of patients with cerebral autosomal dominant arteriopathy with subcortical infarcts and leukoencephalopathy (CADASIL) using a cerebrolysin® preparation” (EVER NEURO PHARMA GMBH, priority 2017, dated 2026).

For series [1] the following is noted: 200-400 mg bid in 24 months.
The conditions of series [2]: transcranial Doppler.
For series [3] the following is noted: transcranial Doppler. The source holds these as a separate data set.

With `C[C@H](O)[C@H](O)[C@H]1CNc2nc(N)[nH]c(=O)c2N1` [Sapropterin], the “primary end-point: mean difference in reactive hyperaemia index (improvement of peripheral vasoreactivity)” value in series [1] was “not significant”. Take `N=C(N)NCCC[C@H](N)C(=O)O` [L-arginine]: in series [2], the vasoreactivity entry is recorded as “induced-vasoreactivity”. In the case of `CC(C)c1c(C(=O)Nc2ccccc2)c(-c2ccccc2)c(-c2ccc(F)cc2)n1CC[C@@H](O)C[C@@H](O)CC(=O)O` [Atorvastatin], the “effect on cerebral blood flow” value in series [3] is “no effects”.
